Measured values from patent US12514849B2, “Pharmaceutical formulations containing relacorilant, a heteroaryl-ketone fused azadecalin compound” (Corcept Therapeutics Incorporated, priority 2018, dated 2026).

What was measured:
[1] = Compatibility/stability of relacorilant with excipients at 40° C./75% RH and 60° C.; assay type: physicochemical
Experimental: The stability of relacorilant in a series of potential excipients was also examined for two weeks at 40° C. at 75% relative humidity, and at 60° C., including in formulations of Table I. The predominant degradation path was through formation of the aromatic decarbonylation of relacorilant with both propylene glycol monocaprylate and lauroyl polyoxyl-32 glyceride excipients. Relacorilant stability was good with both these excipients.

[2] = Stability of relacorilant to pH, moisture and light; assay type: physicochemical
Experimental: Relacorilant stability and compatibility with various excipients was tested and suitable excipients were identified. […] Lauryl polyoxyl-32 glycerides (Gelucire 44/14, available from Gattefosse USA, New Jersey) in place of the stearoyl polyoxyl-32 glycerides were then used. […] This formulation was tested for stability. Stability testing included testing of some formulations for up to one year.

purity (% relacorilant of relacorilant plus relacorilant-derived impurities) ([1]; in lauroyl polyoxyl-32 glycerides, 40° C./75% RH, 1 week): 97.64%
purity (% relacorilant of relacorilant plus relacorilant-derived impurities) ([1]; in lauroyl polyoxyl-32 glycerides, 40° C./75% RH, 2 week): 97.55%
purity (% relacorilant of relacorilant plus relacorilant-derived impurities) ([1]; in lauroyl polyoxyl-32 glycerides, 60° C., 1 week): 97.22%
purity (% relacorilant of relacorilant plus relacorilant-derived impurities) ([1]; in lauroyl polyoxyl-32 glycerides, 60° C., 2 week): 96.77%
purity (% relacorilant of relacorilant plus relacorilant-derived impurities) ([1]; in lauroyl polyoxyl-32 glycerides, Control): 98.09%
purity (% relacorilant of relacorilant plus relacorilant-derived impurities) ([1]; in lauroyl polyoxyl-32 glycerides, T0): 98.13%
purity (% relacorilant of relacorilant plus relacorilant-derived impurities) ([1]; in propylene glycol monocaprylate, 40° C./75% RH, 1 week): 98.00%
purity (% relacorilant of relacorilant plus relacorilant-derived impurities) ([1]; in propylene glycol monocaprylate, 40° C./75% RH, 2 week): 97.84%
purity (% relacorilant of relacorilant plus relacorilant-derived impurities) ([1]; in propylene glycol monocaprylate, 60° C., 1 week): 97.51%
purity (% relacorilant of relacorilant plus relacorilant-derived impurities) ([1]; in propylene glycol monocaprylate, 60° C., 2 week): 96.65%
purity (% relacorilant of relacorilant plus relacorilant-derived impurities) ([1]; in propylene glycol monocaprylate, Control): 98.03%
purity (% relacorilant of relacorilant plus relacorilant-derived impurities) ([1]; in propylene glycol monocaprylate, T0): 98.09%
sensitivity to moisture and light [2]: sensitive to both moisture and light
stability in acidic aqueous solutions ([2]; acidic aqueous solutions): stable
stability under basic conditions ([2]; basic conditions): sensitive to basic conditions
stability over time in formulations having basic pH ([2]; basic pH, particularly pH greater than 8, versus neutral or acidic pH): significantly less stable
stability in neutral solutions ([2]; neutral solutions at elevated temperatures): degrade over time
Compound: Cn1cc(S(=O)(=O)N2CCC3=Cc4c(cnn4-c4ccc(F)cc4)C[C@]3(C(=O)c3cc(C(F)(F)F)ccn3)C2)cn1 [Relacorilant, (R)-(1-(4-fluorophenyl)-6-((1-methyl-1H-pyrazol-4-yl)sulfonyl)-4,4a,5,6,7,8-hexahydro-1H-pyrazolo[3,4-g]isoquinolin-4a-yl)(4-(trifluoromethyl)pyridin-2-yl)methanone]
